Values quoted from earlier work in US20100267960A1, “PROCESS FOR PREPARING PRAMIPEXOLE DIHYDROCHLORIDE TABLETS” (Boehringer Ingelheim Pharma GmbH & Co. KG, priority 2006, published 2010).
Structures can show the parent of a compound that is named as a salt.

How the values were obtained:
[1] = not given; remark: listed apart in the source

light sensitivity in solution (in solution) | stability in the solid state (solid state) | hygroscopicity (solid) | solubility in buffer media ([1]; buffer media, between pH 2 and pH 7.4) | Water solubility ([1]; water) | Structure (SMILES)
light sensitive | very stable |  |  |  | CCCN[C@H]1CCc2nc(N)sc2C1 [Pramipexole, (S)-2-amino-4,5,6,7-tetrahydro-6-(propylamino)benzothiazole]
 |  | not hygroscopic | above 10 mg/mL | more than 20 mg/mL | CCCN[C@H]1CCc2nc(N)sc2C1 [Pramipexole dihydrochloride monohydrate, pramipexole dihydrochloride monohydrate]
